Laboratory results taken from PubChem BioAssay (NCI).
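Cells were grown in 96-well plates and exposed to each compound for 48 hours at five concentrations; endpoints were interpolated linearly between bracketing concentrations, or set to the highest concentration if not reached. TGI marks complete inhibition of growth.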

Columns and labels:
Assay in all cases: NCI anticancer screen, dose series, 48 h
HCC-2998 colon = test system: HCC-2998 colon
TK-10 renal = test system: TK-10 renal
LXFL 529 NSCLC = test system: LXFL 529 NSCLC
UO-31 renal = test system: UO-31 renal
HOP-92 NSCLC = test system: HOP-92 NSCLC
SW-620 colon = test system: SW-620 colon
NCI-H23 lung = test system: NCI-H23 lung
M19-MEL melanoma = test system: M19-MEL melanoma
HCT-116 colon = test system: HCT-116 colon
SNB-75 CNS = test system: SNB-75 CNS
OVCAR-5 ovarian = test system: OVCAR-5 ovarian
SK-MEL-28 melanoma = test system: SK-MEL-28 melanoma
SF-539 CNS = test system: SF-539 CNS
NCI-H226 lung = test system: NCI-H226 lung
K-562 leukemia = test system: K-562 leukemia
IGROV1 ovarian = test system: IGROV1 ovarian
ACHN renal = test system: ACHN renal
UACC-62 melanoma = test system: UACC-62 melanoma
OVCAR-8 ovarian = test system: OVCAR-8 ovarian
U251 CNS = test system: U251 CNS
SF-295 CNS = test system: SF-295 CNS
HOP-62 NSCLC = test system: HOP-62 NSCLC
HT29 colon = test system: HT29 colon
KM12 colon = test system: KM12 colon
OVCAR-3 ovarian = test system: OVCAR-3 ovarian
NCI-H522 lung = test system: NCI-H522 lung
MOLT-4 leukemia = test system: MOLT-4 leukemia
UACC-257 melanoma = test system: UACC-257 melanoma
SF-268 CNS = test system: SF-268 CNS
A549 NSCLC = test system: A549 NSCLC
SK-OV-3 ovarian = test system: SK-OV-3 ovarian
HL-60(TB) leukemia = test system: HL-60(TB) leukemia
COLO 205 colon = test system: COLO 205 colon
RPMI-8226 leukemia = test system: RPMI-8226 leukemia
DLD-1 colon = test system: DLD-1 colon
SNB-19 CNS = test system: SNB-19 CNS
NCI-H460 lung = test system: NCI-H460 lung
CCRF-CEM leukemia = test system: CCRF-CEM leukemia
SR leukemia = test system: SR leukemia
SK-MEL-5 melanoma = test system: SK-MEL-5 melanoma
MDA-N = test system: MDA-N
EKVX NSCLC = test system: EKVX NSCLC
MALME-3M melanoma = test system: MALME-3M melanoma
LOX IMVI melanoma = test system: LOX IMVI melanoma
BT-549 breast = test system: BT-549 breast
CAKI-1 renal = test system: CAKI-1 renal
SK-MEL-2 melanoma = test system: SK-MEL-2 melanoma
DU-145 prostate = test system: DU-145 prostate
T-47D breast = test system: T-47D breast
M14 melanoma = test system: M14 melanoma
NCI/ADR-RES ovarian = test system: NCI/ADR-RES ovarian
MDA-MB-231 breast = test system: MDA-MB-231 breast
OVCAR-4 ovarian = test system: OVCAR-4 ovarian
A498 renal = test system: A498 renal
MDA-MB-435 = test system: MDA-MB-435
HCT-15 colon = test system: HCT-15 colon
SN12C renal = test system: SN12C renal
RXF 393 renal = test system: RXF 393 renal
PC-3 prostate = test system: PC-3 prostate
MCF7 breast = test system: MCF7 breast
786-0 renal = test system: 786-0 renal
HS 578T breast = test system: HS 578T breast

Compound: COc1ccc(/C=N/n2cnc3c(sc(=S)n3-c3ccccc3)c2=O)cc1
- TGI (HCC-2998 colon): > 100 µM
- TGI (TK-10 renal): 65.4 µM
- TGI (LXFL 529 NSCLC): 48.8 µM
- TGI (UO-31 renal): > 100 µM
- TGI (HOP-92 NSCLC): 29.6 µM
- TGI (SW-620 colon): > 100 µM
- TGI (NCI-H23 lung): 87.3 µM
- TGI (M19-MEL melanoma): > 100 µM
- TGI (HCT-116 colon): > 100 µM
- TGI (SNB-75 CNS): 7.87 µM
- TGI (OVCAR-5 ovarian): > 100 µM
- TGI (SK-MEL-28 melanoma): 38.6 µM
- TGI (SF-539 CNS): 28.5 µM
- TGI (NCI-H226 lung): 54.4 µM
- TGI (K-562 leukemia): 48.8 µM
- TGI (IGROV1 ovarian): > 100 µM
- TGI (ACHN renal): > 100 µM
- TGI (UACC-62 melanoma): 49.8 µM
- TGI (OVCAR-8 ovarian): > 100 µM
- TGI (U251 CNS): > 100 µM
- TGI (SF-295 CNS): 31.5 µM
- TGI (HOP-62 NSCLC): 37.3 µM
- TGI (HT29 colon): > 100 µM
- TGI (KM12 colon): > 100 µM
- TGI (OVCAR-3 ovarian): 38.1 µM
- TGI (NCI-H522 lung): 30.1 µM
- TGI (MOLT-4 leukemia): 90.9 µM
- TGI (UACC-257 melanoma): > 100 µM
- TGI (SF-268 CNS): 38.8 µM
- TGI (A549 NSCLC): > 100 µM
- TGI (SK-OV-3 ovarian): 58.6 µM
- TGI (HL-60(TB) leukemia): 37.9 µM
- TGI (COLO 205 colon): > 100 µM
- TGI (RPMI-8226 leukemia): 58.8 µM
- TGI (DLD-1 colon): > 100 µM
- TGI (SNB-19 CNS): 77.5 µM
- TGI (NCI-H460 lung): > 100 µM
- TGI (CCRF-CEM leukemia): 57.8 µM
- TGI (SR leukemia): > 100 µM
- TGI (SK-MEL-5 melanoma): > 100 µM

Compound: CCCCc1ccc(Nc2nc3c(ncn3C3CC(O)C(CN=[N+]=[N-])O3)c(=O)[nH]2)cc1 (configuration not stated)
- TGI (HCC-2998 colon): > 100 µM
- TGI (MDA-N): > 100 µM
- TGI (UO-31 renal): > 100 µM
- TGI (HOP-92 NSCLC): > 100 µM
- TGI (SW-620 colon): > 100 µM
- TGI (NCI-H23 lung): > 100 µM
- TGI (EKVX NSCLC): > 100 µM
- TGI (MALME-3M melanoma): > 100 µM
- TGI (HCT-116 colon): > 100 µM
- TGI (SNB-75 CNS): > 100 µM
- TGI (OVCAR-5 ovarian): > 100 µM
- TGI (SK-MEL-28 melanoma): > 100 µM
- TGI (LOX IMVI melanoma): > 100 µM
- TGI (NCI-H226 lung): > 100 µM
- TGI (K-562 leukemia): > 100 µM
- TGI (IGROV1 ovarian): > 100 µM
- TGI (BT-549 breast): > 100 µM
- TGI (CAKI-1 renal): > 100 µM
- TGI (ACHN renal): > 100 µM
- TGI (UACC-62 melanoma): > 100 µM
- TGI (OVCAR-8 ovarian): > 100 µM
- TGI (U251 CNS): > 100 µM
- TGI (SK-MEL-2 melanoma): > 100 µM
- TGI (DU-145 prostate): > 100 µM
- TGI (SF-295 CNS): > 100 µM
- TGI (T-47D breast): > 100 µM
- TGI (HOP-62 NSCLC): > 100 µM
- TGI (HT29 colon): > 100 µM
- TGI (M14 melanoma): > 100 µM
- TGI (NCI/ADR-RES ovarian): > 100 µM
- TGI (MDA-MB-231 breast): > 100 µM
- TGI (KM12 colon): > 100 µM
- TGI (OVCAR-4 ovarian): > 100 µM
- TGI (OVCAR-3 ovarian): > 100 µM
- TGI (A498 renal): > 100 µM
- TGI (NCI-H522 lung): > 100 µM
- TGI (MOLT-4 leukemia): > 100 µM
- TGI (MDA-MB-435): > 100 µM
- TGI (UACC-257 melanoma): > 100 µM
- TGI (SF-268 CNS): > 100 µM
- TGI (A549 NSCLC): > 100 µM
- TGI (HCT-15 colon): > 100 µM
- TGI (SN12C renal): > 100 µM
- TGI (SK-OV-3 ovarian): > 100 µM
- TGI (RXF 393 renal): > 100 µM
- TGI (PC-3 prostate): > 100 µM
- TGI (MCF7 breast): > 100 µM
- TGI (HL-60(TB) leukemia): > 100 µM
- TGI (786-0 renal): > 100 µM
- TGI (COLO 205 colon): > 100 µM
- TGI (RPMI-8226 leukemia): > 100 µM
- TGI (SNB-19 CNS): > 100 µM
- TGI (NCI-H460 lung): > 100 µM
- TGI (CCRF-CEM leukemia): > 100 µM
- TGI (SR leukemia): > 100 µM
- TGI (SK-MEL-5 melanoma): > 100 µM
- TGI (HS 578T breast): > 100 µM
